Results published in patent US20250268826A1, “IONIZABLE LIPIDOID COMPOSITIONS AND THERAPEUTIC USES THEREOF” (Flagship Pioneering Innovations VII, LLC, priority 2023, published 2025).

Assay: Encapsulation efficiency (EE %) by fluorescence based Ribogreen assay
Format: physicochemical
Details: Table 8; LNP 50:10:38.5:1.5 mol %; hEPO mRNA; N:P 6

| Encapsulation Efficiency % [%] | Compound |
| --- | --- |
| 99.9 | CCCCCCCCC(CCCCCC)C(=O)OCCN(CCOC(=O)C(CCCCCC)CCCCCCCC)C(=O)CCCNCC.Cl (stereo not drawn) [Compound 935] |
| 99.9 | CCCCCCCCC(CCCCCC)C(=O)OCCN(CCOC(=O)C(CCCCCC)CCCCCCCC)C(=O)CCCN(C)CC.Cl (stereo not drawn) [Compound 936] |
| 99.9 | CCCCCCCCC(CCCCCC)C(=O)OCCN(CCOC(=O)C(CCCCCC)CCCCCCCC)C(=O)CCCN(CC)CC.Cl (stereo not drawn) [Compound 937] |
| 99.9 | CCCCCCCCC(CCCCCC)C(=O)OCCN(CCOC(=O)C(CCCCCC)CCCCCCCC)C(=O)CCCN(C)CCC.Cl (stereo not drawn) [Compound 938] |
| 98.5 | CCCCCCCCC(CCCCCC)C(=O)OCCN(CCOC(=O)C(CCCCCC)CCCCCCCC)C(=O)CCCN(C)CCC.Cl (stereo not drawn) [Compound 939] |

Same assay, conditions: Table 9; LNP 50:10:38.5:1.5 mol %; hEPO mRNA; N:P 6

| Encapsulation Efficiency % [%] | Compound |
| --- | --- |
| 99.7 | CCCCCCCCC(CCCCCC)C(=O)OCCN(CCOC(=O)C(CCCCCC)CCCCCCCC)C(=O)CN1CCCC1.Cl (stereo not drawn) [Compound 960c] |
| 99.5 | CCCCCCCCC(CCCCCC)C(=O)OCCN(CCOC(=O)C(CCCCCC)CCCCCCCC)C(=O)CN1CCCCC1.Cl (stereo not drawn) [Compound 960d] |
| 99.4 | CCCCCCCCC(CCCCCC)C(=O)OCCN(CCOC(=O)C(CCCCCC)CCCCCCCC)C(=O)CN1CCOCC1.Cl (stereo not drawn) [Compound 960e] |
| 99 | CCCCCCCCC(CCCCCC)C(=O)OCCN(CCOC(=O)C(CCCCCC)CCCCCCCC)C(=O)CN(C)CCO.Cl (stereo not drawn) [Compound 960g] |
| 99.6 | CCCCCCCC(CCCCCCC)C(=O)OCCN(CCOC(=O)C(CCCCCCC)CCCCCCC)C(=O)CN(C)C.Cl [Compound 962] |
| 99.2 | CCCCCCCCCC(CCCCCCCCC)C(=O)OCCN(CCOC(=O)C(CCCCCCCCC)CCCCCCCCC)C(=O)CN(C)C.Cl [Compound 963] |
| 99.3 | CCCCCCCCC(CCCCCC)C(=O)OCCN(CCOC(=O)C(CCCCCC)CCCCCCCC)C(=O)CNC.Cl (stereo not drawn) [Compound 964] |
| 98.6 | CCCCCCCCC(CCCCCC)C(=O)OCCN(CCOC(=O)C(CCCCCC)CCCCCCCC)C(=O)CNCC.Cl (stereo not drawn) [Compound 965] |
| 97.8 | CCCCCCCCC(CCCCCC)C(=O)OCCN(CCOC(=O)C(CCCCCC)CCCCCCCC)C(=O)CN(C)CC.Cl (stereo not drawn) [Compound 966] |
| 97.9 | CCCCCCCCC(CCCCCC)C(=O)OCCN(CCOC(=O)C(CCCCCC)CCCCCCCC)C(=O)CN(CC)CC.Cl (stereo not drawn) [Compound 967] |

Assay: LNP Zeta potential measured using a Zetasizer (Malvern)
Format: physicochemical
Details: Table 8; LNP 50:10:38.5:1.5 mol %; hEPO mRNA; N:P 6

| Zeta potential [mV] | Compound |
| --- | --- |
| −9.5 | CCCCCCCCC(CCCCCC)C(=O)OCCN(CCOC(=O)C(CCCCCC)CCCCCCCC)C(=O)CCCNCC.Cl (stereo not drawn) [Compound 935] |
| −10.7 | CCCCCCCCC(CCCCCC)C(=O)OCCN(CCOC(=O)C(CCCCCC)CCCCCCCC)C(=O)CCCN(C)CC.Cl (stereo not drawn) [Compound 936] |
| −9.2 | CCCCCCCCC(CCCCCC)C(=O)OCCN(CCOC(=O)C(CCCCCC)CCCCCCCC)C(=O)CCCN(CC)CC.Cl (stereo not drawn) [Compound 937] |
| −18.3 | CCCCCCCCC(CCCCCC)C(=O)OCCN(CCOC(=O)C(CCCCCC)CCCCCCCC)C(=O)CCCN(C)CCC.Cl (stereo not drawn) [Compound 938] |
| −14.9 | CCCCCCCCC(CCCCCC)C(=O)OCCN(CCOC(=O)C(CCCCCC)CCCCCCCC)C(=O)CCCN(C)CCC.Cl (stereo not drawn) [Compound 939] |

Same assay, conditions: Table 9; LNP 50:10:38.5:1.5 mol %; hEPO mRNA; N:P 6

| Zeta potential [mV] | Compound |
| --- | --- |
| −20.89 | CCCCCCCCC(CCCCCC)C(=O)OCCN(CCOC(=O)C(CCCCCC)CCCCCCCC)C(=O)CN1CCCC1.Cl (stereo not drawn) [Compound 960c] |
| −32.3 | CCCCCCCCC(CCCCCC)C(=O)OCCN(CCOC(=O)C(CCCCCC)CCCCCCCC)C(=O)CN1CCCCC1.Cl (stereo not drawn) [Compound 960d] |
| −45.58 | CCCCCCCCC(CCCCCC)C(=O)OCCN(CCOC(=O)C(CCCCCC)CCCCCCCC)C(=O)CN1CCOCC1.Cl (stereo not drawn) [Compound 960e] |
| −12.1 | CCCCCCCCC(CCCCCC)C(=O)OCCN(CCOC(=O)C(CCCCCC)CCCCCCCC)C(=O)CN(C)CCO.Cl (stereo not drawn) [Compound 960g] |
| −30.33 | CCCCCCCC(CCCCCCC)C(=O)OCCN(CCOC(=O)C(CCCCCCC)CCCCCCC)C(=O)CN(C)C.Cl [Compound 962] |
| −41.21 | CCCCCCCCCC(CCCCCCCCC)C(=O)OCCN(CCOC(=O)C(CCCCCCCCC)CCCCCCCCC)C(=O)CN(C)C.Cl [Compound 963] |
| −26.13 | CCCCCCCCC(CCCCCC)C(=O)OCCN(CCOC(=O)C(CCCCCC)CCCCCCCC)C(=O)CNC.Cl (stereo not drawn) [Compound 964] |
| −14.27 | CCCCCCCCC(CCCCCC)C(=O)OCCN(CCOC(=O)C(CCCCCC)CCCCCCCC)C(=O)CNCC.Cl (stereo not drawn) [Compound 965] |
| −36.65 | CCCCCCCCC(CCCCCC)C(=O)OCCN(CCOC(=O)C(CCCCCC)CCCCCCCC)C(=O)CN(C)CC.Cl (stereo not drawn) [Compound 966] |
| −21.99 | CCCCCCCCC(CCCCCC)C(=O)OCCN(CCOC(=O)C(CCCCCC)CCCCCCCC)C(=O)CN(CC)CC.Cl (stereo not drawn) [Compound 967] |

Assay: LNP size and polydispersity index (PDI) by dynamic light scattering (DLS)
Format: physicochemical
Details: Table 8; LNP 50:10:38.5:1.5 mol %; hEPO mRNA; N:P 6

| PDI | Compound |
| --- | --- |
| 0.167 | CCCCCCCCC(CCCCCC)C(=O)OCCN(CCOC(=O)C(CCCCCC)CCCCCCCC)C(=O)CCCNCC.Cl (stereo not drawn) [Compound 935] |
| 0.175 | CCCCCCCCC(CCCCCC)C(=O)OCCN(CCOC(=O)C(CCCCCC)CCCCCCCC)C(=O)CCCN(C)CC.Cl (stereo not drawn) [Compound 936] |
| 0.136 | CCCCCCCCC(CCCCCC)C(=O)OCCN(CCOC(=O)C(CCCCCC)CCCCCCCC)C(=O)CCCN(CC)CC.Cl (stereo not drawn) [Compound 937] |
| 0.248 | CCCCCCCCC(CCCCCC)C(=O)OCCN(CCOC(=O)C(CCCCCC)CCCCCCCC)C(=O)CCCN(C)CCC.Cl (stereo not drawn) [Compound 938] |
| 0.172 | CCCCCCCCC(CCCCCC)C(=O)OCCN(CCOC(=O)C(CCCCCC)CCCCCCCC)C(=O)CCCN(C)CCC.Cl (stereo not drawn) [Compound 939] |

Same assay, conditions: Table 8; LNP Lipid:DSPC:Cholesterol:DMG-PEG2k 50:10:38.5:1.5 mol %; hEPO mRNA; N:P 6

| Size [nm] | Compound |
| --- | --- |
| 111.9 | CCCCCCCCC(CCCCCC)C(=O)OCCN(CCOC(=O)C(CCCCCC)CCCCCCCC)C(=O)CCCNCC.Cl (stereo not drawn) [Compound 935] |
| 110.1 | CCCCCCCCC(CCCCCC)C(=O)OCCN(CCOC(=O)C(CCCCCC)CCCCCCCC)C(=O)CCCN(C)CC.Cl (stereo not drawn) [Compound 936] |
| 144 | CCCCCCCCC(CCCCCC)C(=O)OCCN(CCOC(=O)C(CCCCCC)CCCCCCCC)C(=O)CCCN(CC)CC.Cl (stereo not drawn) [Compound 937] |
| 103.7 | CCCCCCCCC(CCCCCC)C(=O)OCCN(CCOC(=O)C(CCCCCC)CCCCCCCC)C(=O)CCCN(C)CCC.Cl (stereo not drawn) [Compound 938] |
| 103.5 | CCCCCCCCC(CCCCCC)C(=O)OCCN(CCOC(=O)C(CCCCCC)CCCCCCCC)C(=O)CCCN(C)CCC.Cl (stereo not drawn) [Compound 939] |

Same assay, conditions: Table 9; LNP 50:10:38.5:1.5 mol %; hEPO mRNA; N:P 6

| PDI | Compound |
| --- | --- |
| 0.079 | CCCCCCCCC(CCCCCC)C(=O)OCCN(CCOC(=O)C(CCCCCC)CCCCCCCC)C(=O)CN1CCCC1.Cl (stereo not drawn) [Compound 960c] |
| 0.133 | CCCCCCCCC(CCCCCC)C(=O)OCCN(CCOC(=O)C(CCCCCC)CCCCCCCC)C(=O)CN1CCCCC1.Cl (stereo not drawn) [Compound 960d] |
| 0.384 | CCCCCCCCC(CCCCCC)C(=O)OCCN(CCOC(=O)C(CCCCCC)CCCCCCCC)C(=O)CN1CCOCC1.Cl (stereo not drawn) [Compound 960e] |
| 0.254 | CCCCCCCCC(CCCCCC)C(=O)OCCN(CCOC(=O)C(CCCCCC)CCCCCCCC)C(=O)CN(C)CCO.Cl (stereo not drawn) [Compound 960g] |
| 0.132 | CCCCCCCC(CCCCCCC)C(=O)OCCN(CCOC(=O)C(CCCCCCC)CCCCCCC)C(=O)CN(C)C.Cl [Compound 962] |
| 0.447 | CCCCCCCCCC(CCCCCCCCC)C(=O)OCCN(CCOC(=O)C(CCCCCCCCC)CCCCCCCCC)C(=O)CN(C)C.Cl [Compound 963] |
| 0.317 | CCCCCCCCC(CCCCCC)C(=O)OCCN(CCOC(=O)C(CCCCCC)CCCCCCCC)C(=O)CNC.Cl (stereo not drawn) [Compound 964] |
| 0.216 | CCCCCCCCC(CCCCCC)C(=O)OCCN(CCOC(=O)C(CCCCCC)CCCCCCCC)C(=O)CNCC.Cl (stereo not drawn) [Compound 965] |
| 0.076 | CCCCCCCCC(CCCCCC)C(=O)OCCN(CCOC(=O)C(CCCCCC)CCCCCCCC)C(=O)CN(C)CC.Cl (stereo not drawn) [Compound 966] |
| 0.101 | CCCCCCCCC(CCCCCC)C(=O)OCCN(CCOC(=O)C(CCCCCC)CCCCCCCC)C(=O)CN(CC)CC.Cl (stereo not drawn) [Compound 967] |

Same assay, conditions: Table 9; LNP Lipid:DSPC:Cholesterol:DMG-PEG2k 50:10:38.5:1.5 mol %; hEPO mRNA; N:P 6

| Size [nm] | Compound |
| --- | --- |
| 88 | CCCCCCCCC(CCCCCC)C(=O)OCCN(CCOC(=O)C(CCCCCC)CCCCCCCC)C(=O)CN1CCCC1.Cl (stereo not drawn) [Compound 960c] |
| 74.5 | CCCCCCCCC(CCCCCC)C(=O)OCCN(CCOC(=O)C(CCCCCC)CCCCCCCC)C(=O)CN1CCCCC1.Cl (stereo not drawn) [Compound 960d] |
| 73.3 | CCCCCCCCC(CCCCCC)C(=O)OCCN(CCOC(=O)C(CCCCCC)CCCCCCCC)C(=O)CN1CCOCC1.Cl (stereo not drawn) [Compound 960e] |
| 72.6 | CCCCCCCCC(CCCCCC)C(=O)OCCN(CCOC(=O)C(CCCCCC)CCCCCCCC)C(=O)CN(C)CCO.Cl (stereo not drawn) [Compound 960g] |
| 74.9 | CCCCCCCC(CCCCCCC)C(=O)OCCN(CCOC(=O)C(CCCCCCC)CCCCCCC)C(=O)CN(C)C.Cl [Compound 962] |
| 76.1 | CCCCCCCCCC(CCCCCCCCC)C(=O)OCCN(CCOC(=O)C(CCCCCCCCC)CCCCCCCCC)C(=O)CN(C)C.Cl [Compound 963] |
| 73.9 | CCCCCCCCC(CCCCCC)C(=O)OCCN(CCOC(=O)C(CCCCCC)CCCCCCCC)C(=O)CNC.Cl (stereo not drawn) [Compound 964] |
| 76.3 | CCCCCCCCC(CCCCCC)C(=O)OCCN(CCOC(=O)C(CCCCCC)CCCCCCCC)C(=O)CNCC.Cl (stereo not drawn) [Compound 965] |
| 89.5 | CCCCCCCCC(CCCCCC)C(=O)OCCN(CCOC(=O)C(CCCCCC)CCCCCCCC)C(=O)CN(C)CC.Cl (stereo not drawn) [Compound 966] |
| 82.1 | CCCCCCCCC(CCCCCC)C(=O)OCCN(CCOC(=O)C(CCCCCC)CCCCCCCC)C(=O)CN(CC)CC.Cl (stereo not drawn) [Compound 967] |
